Columns and labels:
[1] = molecular target: T1, Muscarinic acetylcholine receptor M3 (Homo sapiens, UniProt P20309); test: Evaluated for its binding affinity at human muscarinic receptor m3 by the displacement of [3H]NMS binding using membranes from transfected chinese hamster ovarian cell; assay type: cell-based
Target sequence in this assay (P20309 whole entry): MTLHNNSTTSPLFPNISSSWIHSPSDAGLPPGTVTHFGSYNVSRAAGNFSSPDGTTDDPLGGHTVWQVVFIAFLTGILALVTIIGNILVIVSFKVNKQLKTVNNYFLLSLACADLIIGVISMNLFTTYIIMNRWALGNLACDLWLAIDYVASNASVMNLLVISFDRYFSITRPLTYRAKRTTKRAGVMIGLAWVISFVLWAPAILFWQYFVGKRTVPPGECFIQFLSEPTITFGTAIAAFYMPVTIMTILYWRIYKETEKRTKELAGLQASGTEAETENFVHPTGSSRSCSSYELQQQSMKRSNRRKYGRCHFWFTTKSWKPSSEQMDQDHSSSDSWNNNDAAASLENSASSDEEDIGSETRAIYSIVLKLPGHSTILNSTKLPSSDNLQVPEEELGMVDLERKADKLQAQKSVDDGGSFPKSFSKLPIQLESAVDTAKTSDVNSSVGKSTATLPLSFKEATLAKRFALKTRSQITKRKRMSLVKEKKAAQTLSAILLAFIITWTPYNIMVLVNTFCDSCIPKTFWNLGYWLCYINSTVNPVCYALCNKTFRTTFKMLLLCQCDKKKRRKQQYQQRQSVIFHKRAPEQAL

[2] = molecular target: T2, Muscarinic acetylcholine receptor M5 (Homo sapiens, UniProt P08912); test: Evaluated for its binding affinity at human muscarinic receptor m5 by the displacement of [3H]NMS binding using membranes from transfected chinese hamster ovarian cell
T2 sequence (P08912 whole entry): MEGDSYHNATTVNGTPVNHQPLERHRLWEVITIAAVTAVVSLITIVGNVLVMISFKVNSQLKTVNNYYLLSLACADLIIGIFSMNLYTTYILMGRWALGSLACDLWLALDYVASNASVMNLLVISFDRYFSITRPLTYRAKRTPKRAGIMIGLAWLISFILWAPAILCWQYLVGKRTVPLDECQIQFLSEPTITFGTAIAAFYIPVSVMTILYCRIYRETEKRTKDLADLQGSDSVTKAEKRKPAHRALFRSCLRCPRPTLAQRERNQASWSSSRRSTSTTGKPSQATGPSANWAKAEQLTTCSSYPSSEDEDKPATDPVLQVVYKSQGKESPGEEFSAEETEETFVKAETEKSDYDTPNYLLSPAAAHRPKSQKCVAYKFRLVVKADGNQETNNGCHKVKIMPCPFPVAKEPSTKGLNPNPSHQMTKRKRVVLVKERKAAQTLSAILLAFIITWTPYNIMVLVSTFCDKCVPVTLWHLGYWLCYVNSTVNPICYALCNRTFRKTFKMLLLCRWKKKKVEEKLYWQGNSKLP

[3] = molecular target: T3, Muscarinic acetylcholine receptor M2 (Homo sapiens, UniProt P08172); test: Evaluated for its binding affinity at human muscarinic receptor m2 by displacement of [3H]NMS binding using membranes from transfected chinese hamster ovarian cell
T3 sequence (P08172 whole entry): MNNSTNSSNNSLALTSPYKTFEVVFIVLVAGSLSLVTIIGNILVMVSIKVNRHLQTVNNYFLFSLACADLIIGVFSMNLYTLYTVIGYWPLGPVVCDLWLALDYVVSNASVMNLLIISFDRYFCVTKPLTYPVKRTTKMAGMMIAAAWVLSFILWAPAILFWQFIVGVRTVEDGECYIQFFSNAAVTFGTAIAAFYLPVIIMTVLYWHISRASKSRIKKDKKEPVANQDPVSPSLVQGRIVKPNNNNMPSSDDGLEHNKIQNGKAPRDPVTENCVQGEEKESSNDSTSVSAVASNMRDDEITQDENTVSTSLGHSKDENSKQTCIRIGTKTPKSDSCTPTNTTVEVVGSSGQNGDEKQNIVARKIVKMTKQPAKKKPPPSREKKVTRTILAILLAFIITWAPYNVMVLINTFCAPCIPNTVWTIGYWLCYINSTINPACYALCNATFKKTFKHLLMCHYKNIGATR

[4] = molecular target: T4, Muscarinic acetylcholine receptor M1 (Homo sapiens, UniProt P11229); test: Evaluated for its binding affinity at human muscarinic receptor m1 by displacement of [3H]NMS binding using membranes in transfected chinese hamster ovarian cell; assay type: cell-based
T4 sequence (P11229 whole entry): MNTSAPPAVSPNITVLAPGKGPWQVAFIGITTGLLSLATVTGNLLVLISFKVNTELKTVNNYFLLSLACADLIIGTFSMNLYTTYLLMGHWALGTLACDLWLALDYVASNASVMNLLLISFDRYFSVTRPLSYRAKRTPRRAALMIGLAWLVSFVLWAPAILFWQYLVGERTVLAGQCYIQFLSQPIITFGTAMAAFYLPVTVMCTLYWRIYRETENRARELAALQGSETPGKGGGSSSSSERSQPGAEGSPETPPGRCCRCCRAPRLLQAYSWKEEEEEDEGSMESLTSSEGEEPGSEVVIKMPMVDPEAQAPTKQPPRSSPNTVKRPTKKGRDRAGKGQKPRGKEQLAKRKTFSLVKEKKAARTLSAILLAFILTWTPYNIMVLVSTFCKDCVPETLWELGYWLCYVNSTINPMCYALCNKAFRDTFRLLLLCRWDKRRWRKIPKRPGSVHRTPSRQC

[5] = molecular target: T5, Muscarinic acetylcholine receptor M4 (Homo sapiens, UniProt P08173); test: Evaluated for its binding affinity at human muscarinic receptor m4 by the displacement of [3H]NMS binding using membranes from transfected chinese hamster ovarian cell
T5 sequence (P08173 whole entry): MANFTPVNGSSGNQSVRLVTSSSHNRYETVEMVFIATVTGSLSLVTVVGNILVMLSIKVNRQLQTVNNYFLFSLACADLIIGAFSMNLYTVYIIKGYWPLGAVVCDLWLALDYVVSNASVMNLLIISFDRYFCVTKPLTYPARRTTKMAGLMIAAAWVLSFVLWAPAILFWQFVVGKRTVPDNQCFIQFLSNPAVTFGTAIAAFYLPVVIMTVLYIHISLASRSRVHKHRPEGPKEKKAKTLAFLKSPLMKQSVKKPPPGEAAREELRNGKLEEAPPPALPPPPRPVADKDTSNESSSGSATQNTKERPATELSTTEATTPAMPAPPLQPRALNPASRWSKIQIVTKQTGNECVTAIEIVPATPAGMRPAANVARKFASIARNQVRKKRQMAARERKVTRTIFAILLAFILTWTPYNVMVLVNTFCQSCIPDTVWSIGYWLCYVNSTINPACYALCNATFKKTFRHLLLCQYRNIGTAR

[6] = molecular target: T6, Muscarinic acetylcholine receptor M4 (Homo sapiens) (UniProt P08173); test: Compound was evaluated for its binding affinity at human muscarinic receptor Hm4 by the displacement of [3H]-NMS radioligand using membranes from transfected chinese hamster ovarian cell at 1000 nM concentration
T6 sequence (whole entry): T5 sequence (P08173 whole entry)

[7] = molecular target: T6, Muscarinic acetylcholine receptor M4 (Homo sapiens); test: Compound was evaluated for its binding affinity at human muscarinic receptor Hm4 by the displacement of [3H]NMS radioligand using membranes from transfected chinese hamster ovarian cell at 100 nM concentration
[8] = molecular target: T1, Muscarinic acetylcholine receptor M3; test: Compound was evaluated for its binding affinity at human muscarinic receptor Hm3 by the displacement of [3H]NMS radioligand using membranes from transfected chinese hamster ovarian cell at 100 nM concentration
Target sequence in this assay (P20309 whole entry, looked up): as the sequence (P20309 whole entry) above

[9] = molecular target: T7, Muscarinic acetylcholine receptor M5 (Homo sapiens) (UniProt P08912); test: Compound was evaluated for its binding affinity at human muscarinic receptor Hm5 by the displacement of [3H]-NMS radioligand using membranes from transfected chinese hamster ovarian cell at 1000 nM concentration
T7 sequence (whole entry): T2 sequence (P08912 whole entry)

[10] = molecular target: T7, Muscarinic acetylcholine receptor M5 (Homo sapiens); test: Compound was evaluated for its binding affinity at human muscarinic receptor Hm5 by the displacement of [3H]NMS radioligand using membranes from transfected chinese hamster ovarian cell at 100 nM concentration
[11] = molecular target: T8, Muscarinic acetylcholine receptor M2 (Homo sapiens) (UniProt P08172); test: Compound was evaluated for its binding affinity at human muscarinic receptor m2 by the displacement of [3H]NMS radioligand using membranes from transfected chinese hamster ovarian cell at 1000 nM concentration
T8 sequence (whole entry): T3 sequence (P08172 whole entry)

[12] = molecular target: T1, Muscarinic acetylcholine receptor M3; test: Compound was evaluated for its binding affinity at human muscarinic receptor Hm3 by the displacement of [3H]NMS radioligand using membranes from transfected chinese hamster ovarian cell at 1000 nM concentration
Target sequence in this assay (P20309 whole entry, looked up): as the sequence (P20309 whole entry) above

[13] = molecular target: T8, Muscarinic acetylcholine receptor M2 (Homo sapiens); test: Compound was evaluated for its binding affinity at human muscarinic receptor m2 by displacement of [3H]NMS radioligand using membranes from transfected chinese hamster ovarian cell at 100 nM concentration

Structure (SMILES) | IC50 [1] | IC50 [2] | IC50 [3] | IC50 [4] | IC50 [5] | inhibition [6] | inhibition [7] | inhibition [8] | inhibition [9] | inhibition [10] | inhibition [11] | inhibition [12] | inhibition [13]
CCOC(=O)c1c(C)[nH]c2ccc3c(c12)CN1CCc2cc(OCC)ccc2C1O3 (stereo unspecified) | 2.63 µM | 8.62 µM | 2.56 µM | 4.25 µM | 1.62 µM | – | – | – | – | – | – | – | –
CC1OC(=O)[C@H]2C[C@H]3CCCC[C@@H]3[C@@H](/C=C/C3CCC[C@H](C)N3C)[C@@H]12 (single isomer, unassigned) [HIMBACINE] | – | 1.02 µM | 0.0175 µM | 0.548 µM | – | – | – | – | – | – | – | – | –
CCCOC(=O)c1c(C)[nH]c2ccc3c(c12)CN1CCc2cc(OC)ccc2C1O3 (stereo unspecified) | 1.48 µM | 3.81 µM | 1.91 µM | 1.96 µM | 0.36 µM | – | – | – | – | – | – | – | –
COc1ccc2c(c1)CCN1Cc3c(ccc4[nH]c(C)c(C(=O)OC(C)C)c34)OC21 (stereo unspecified) | 2.82 µM | 4.74 µM | 2.64 µM | 4.06 µM | 2.05 µM | – | – | – | – | – | – | – | –
CCOC(=O)c1c(C)[nH]c2ccc3c(c12)CN1CCc2cc(OC)ccc2C1O3 (stereo unspecified) | 0.95 µM | 7.41 µM | 3.44 µM | 6.56 µM | 0.0907 µM | – | – | – | – | – | – | – | –
CCOC(=O)c1c[nH]c2ccc3c(c12)CN1CCc2cc(OC)ccc2C1O3 (stereo unspecified) | 3.7 µM | 6 µM | 4.56 µM | 5.62 µM | 0.334 µM | – | – | – | – | – | – | – | –
CCOC(=O)c1c(C)[nH]c2ccc3c(c12)C[N+]1(C)CCc2cc(OC)ccc2C1O3 (stereo unspecified) | – | – | – | – | – | 19.9% | 0% | 0% | 1.6% | 0.9% | 29.9% | 0% | 14.7%
CCOC(=O)c1c(C)[nH]c2ccc3c(c12)CN1CCc2cc(OC)c(OC)cc2C1O3 (stereo unspecified) | 1.62 µM | 26.6 µM | 9.34 µM | 12.9 µM | 0.301 µM | – | – | – | – | – | – | – | –
CCOC(=O)c1c(C)[nH]c2ccc3c(c12)CN1CCc2ccc(OC)cc2C1O3 (stereo unspecified) | 10.8 µM | 8.21 µM | 3 µM | 9.02 µM | 6.03 µM | – | – | – | – | – | – | – | –
COC(=O)c1c(C)[nH]c2ccc3c(c12)CN1CCc2cc(OC)ccc2C1O3 (stereo unspecified) | 3.39 µM | 4.09 µM | 13.1 µM | 3.79 µM | 0.501 µM | – | – | – | – | – | – | – | –
COC(=O)c1c(C)[nH]c2ccc3c(c12)CN1CCc2ccccc2C1O3 (stereo unspecified) | 12.6 µM | 5.76 µM | 4.66 µM | 7.12 µM | 9.93 µM | – | – | – | – | – | – | – | –
COc1cc2c(cc1OC)C1Oc3ccc4[nH]c(C)cc4c3CN1CC2 (stereo unspecified) | 32.6 µM | 43.5 µM | 14.7 µM | 32.7 µM | 4.74 µM | – | – | – | – | – | – | – | –
CCOC(=O)c1c(C)[nH]c2ccc3c(c12)CN1CCc2cc(Oc4ccccc4)ccc2C1O3 (stereo unspecified) | 3.07 µM | 2.03 µM | 1.65 µM | 1.96 µM | 2.63 µM | – | – | – | – | – | – | – | –
COc1ccc2c(c1)CCN1Cc3c(ccc4[nH]c(C)cc34)OC21 (stereo unspecified) | 15.3 µM | 18 µM | 1.15 µM | 10.8 µM | 9.74 µM | – | – | – | – | – | – | – | –
CCOC(=O)c1c(C)[nH]c2ccc3c(c12)CN1CCc2cc(C)ccc2C1O3 (stereo unspecified) | 2.72 µM | 3.88 µM | 9.52 µM | 3.28 µM | 0.465 µM | – | – | – | – | – | – | – | –
CCOC(=O)c1c(C)[nH]c2ccc3c(c12)CN1CCc2ccccc2C1O3 (stereo unspecified) | 5.49 µM | 4.19 µM | 2.68 µM | 5.01 µM | 3.71 µM | – | – | – | – | – | – | – | –
CCOC(=O)c1c[nH]c2ccc3c(c12)CN1CCc2cc(OC)c(OC)cc2C1O3 (stereo unspecified) | 10.3 µM | 47.4 µM | 7.7 µM | 8.22 µM | 1.5 µM | – | – | – | – | – | – | – | –
CCOC(=O)c1c(C)[nH]c2ccc3c(c12)CN1CCc2cccc(C)c2C1O3 (stereo unspecified) | 2.83 µM | 1.73 µM | < 1 µM | 6.11 µM | 1.47 µM | – | – | – | – | – | – | – | –
